These results are taken from patent publication US20120282356A1, “COMPOSITIONS FOR PREVENTION AGAINST SPOILAGE BY MOULDS AND YEASTS AND USES AND PRODUCTS RELATED THERETO” (MARS INCORPORATED, priority 2009, published 2012).

In this test the test system is Aspergillus niger DSMZ 737. Description: Minimum Inhibition Concentration (MIC) test in YG broth cell culture plates. The class given is cell-based. The settings on record: substance alone, 3 days at 30° C., no visible growth of mycelium. The protocol: Further tests have been conducted to establish synergistic activity of the antimycotic cocktails of the present invention. These tests are based on determination of the Minimum Inhibition Concentration (MIC).
For the tests, cell culture plates with YG broth as a base were used. Test samples were inoculated with a conidial suspension of Aspergillus niger DSMZ 737 and incubated for 3 days at 30° C. The targeted spore count was at approximately 10^5 spores/ml. As Minimal Inhibition Concentration (MIC) the concentration of active ingredient with no visible growth of mycelium in the cavity was defined. In addition, results were confirmed microscopically and in a culture on YGC plates.
To dissolve the different mixtures, one of the following media was used as appropriate: distilled water; distilled water+0.5% Tween 80; distilled water+0.4% Lecithine.

Regarding cinnamon aldehyde, the “Minimum Inhibition Concentration (MIC)” value stood at 200 ppm.
By MIC is commonly meant the lowest concentration that inhibits growth of the organism. As for `CCCCCCCC(=O)O` [caprylic acid], the minimal inhibitory concentration (MIC) (Aspergillus niger, DSMZ737, 72 h) was determined as 2000 µg/mL.
Regarding `O=C(O)CC(O)C(=O)O` (stereo not drawn) [malic acid], the “Minimum Inhibition Concentration (MIC)” value is “no MIC”.
